The record followed here is patent US20020082254A1, “Compounds for treating disorders where a decreased level of plasma FFA is desired” (priority 2000, published 2002).

One may read the pIC50 as the negative decadic logarithm of the IC50, by convention in mol/L.

pIC50: −log10 of the molar value.

The assay deals with T1, Hormone-sensitive lipase (HSL) (Homo sapiens, UniProt Q05469).
T1 sequence (Q05469 1-1076): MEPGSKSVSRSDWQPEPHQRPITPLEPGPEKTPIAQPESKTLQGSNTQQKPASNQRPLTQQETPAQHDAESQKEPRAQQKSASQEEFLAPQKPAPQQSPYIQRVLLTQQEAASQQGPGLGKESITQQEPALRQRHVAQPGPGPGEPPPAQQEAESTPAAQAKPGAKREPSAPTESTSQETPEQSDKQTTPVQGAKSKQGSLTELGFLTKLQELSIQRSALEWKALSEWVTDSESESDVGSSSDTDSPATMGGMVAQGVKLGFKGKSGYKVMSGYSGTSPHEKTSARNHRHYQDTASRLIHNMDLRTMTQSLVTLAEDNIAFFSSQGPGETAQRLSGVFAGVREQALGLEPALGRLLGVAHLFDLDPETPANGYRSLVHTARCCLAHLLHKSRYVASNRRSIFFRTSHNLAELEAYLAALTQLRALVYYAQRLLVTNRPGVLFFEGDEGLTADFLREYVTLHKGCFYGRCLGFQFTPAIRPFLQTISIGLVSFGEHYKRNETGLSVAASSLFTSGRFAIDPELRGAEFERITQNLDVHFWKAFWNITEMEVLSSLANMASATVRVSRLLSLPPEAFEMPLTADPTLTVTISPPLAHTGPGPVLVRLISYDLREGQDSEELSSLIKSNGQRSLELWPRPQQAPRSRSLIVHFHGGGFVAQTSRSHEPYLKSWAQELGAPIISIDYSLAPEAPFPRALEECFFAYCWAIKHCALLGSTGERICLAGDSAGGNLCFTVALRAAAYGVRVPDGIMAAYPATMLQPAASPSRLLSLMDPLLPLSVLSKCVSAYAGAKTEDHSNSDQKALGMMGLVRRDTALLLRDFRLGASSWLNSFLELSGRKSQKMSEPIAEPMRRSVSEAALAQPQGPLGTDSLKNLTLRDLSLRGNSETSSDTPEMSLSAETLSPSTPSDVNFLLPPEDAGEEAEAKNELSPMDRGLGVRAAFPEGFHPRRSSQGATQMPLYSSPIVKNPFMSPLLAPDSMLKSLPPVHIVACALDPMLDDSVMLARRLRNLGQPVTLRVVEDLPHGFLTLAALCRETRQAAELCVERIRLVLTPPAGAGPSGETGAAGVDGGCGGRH
Kind of assay: Hormone-sensitive lipase (HSL) inhibition assay, 3H-labeled triolein or MOME substrate. The assay is classed as biochemical. The note with it: read-out: HSL inhibition (IC50). In short, it runs like this: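 HSL enzyme (0.12 mg/ml stock) preincubated with inhibitor in PED-BSA, then given sonicated PC:PI-emulsified ³H-triolein or ³H-MOME in 0.1 M potassium phosphate pH 7 with BSA. 30 min at 37 °C; released radiolabelled fatty acid extracted in methanol/chloroform/heptane at pH 10.5 and scintillation counted.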
For `O=C(NN1CCc2ccccc2C1)Oc1ccc(Cl)cc1` [Example 6, (3,4-Dihydro-1H-isoquinolin-2-yl)-carbamic acid 4-chloro-phenyl Ester], the pIC50 was 7.72. As for `CC(C)(C)OC(=O)Nc1ccc(OC(=O)NN2CCc3ccccc3C2)cc1` [Example 17, (3,4-Dihydro-1H-isoquinolin-2-yl)-carbamic Acid 4-tert-butoxycarbonylamino-phenyl Ester], the pIC50 is 8.52. As for `CC1Cc2ccccc2CN1NC(=O)Oc1ccc(Cl)cc1` (stereo not drawn) [Example 23, (3-Methyl-3,4-dihydro-1H-isoquinolin-2-yl)-carbamic Acid 4-chloro-phenyl Ester], the figure is 7.40.
